Literature values, collected in patent CN110302150A, “甲硫氨酸维生素b1注射液及其的制备方法” (Chengdu Cacumen Et Folium Clerodendri Mandarinori …, priority 2019, dated 2019).
Read-outs that look alike come from different tables or passages of the source.

Structure (SMILES) | stability (during production and storage) | stability (high temperature and pH>4)
Cc1ncc(C[n+]2csc(CCO)c2C)c(N)n1 [维生素B1] | 不稳定,较易降解 | 不稳定
CSCCC(N)C(=O)O (stereo not drawn) [甲硫氨酸] | 不稳定,较易降解 | 
